Counter-ions that a name gives are not always drawn.

This assay relates to PMS1. The assay can be described thus: Mini-Gene Reporter Assay—PMS1 (firefly luciferase mini-gene reporter transiently transfected into HEK293 cells). Conditions: Homo sapiens, mini-gene firefly luciferase reporter in HEK293 cells; for activation at 5 µM: read-out: PMS1 % Effect at 5 uM. The assay is classed as cell-based. The essentials: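 Luminescence (RLU) read-out of exon inclusion: compound dilutions, tested in duplicate, act on transiently transfected HEK293 cells carrying a firefly luciferase reporter fused downstream of the PMS1 skipped-exon region. Potency derived by Levenberg-Marquardt curve fitting, with percent effect at 5 μM.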
In general terms: Reporter assays use an easily measured gene product as a stand-in for the process of interest.

Take `CCOc1cc2nc(C)cn2cc1C(=O)Nc1cnc(N2CCNC(C)C2)nc1` (stereo not drawn) [Compound 654]: the activation at 5 µM was more than 75%.
The same measure, in the same setting: as for `CCOc1cc2nc(C)cn2cc1C(=O)Nc1cnc(NCC2CCNC23CCC3)cn1` (stereo not drawn) [Compound 659], the figure is more than 75%.
The same measure, in the same setting: for `CCOc1cc2nc(C)cn2cc1C(=O)Nc1cnc(N2CC(O)(CNC)C2)cn1` [Compound 662] the value was more than 75%; for `CCOc1cc2nc(C)cn2cc1C(=O)Nc1cnc(NC2CNC(C)(C)C2)cn1` (stereo not drawn) [Compound 663], more than 75%.
`CCOc1cc2nc(C)cn2cc1C(=O)Nc1cnc(N2CC(C3CNC3)C2)cn1` [Compound 664]: the activation at 5 µM was more than 75%.
Same read-out and setting: for `CCOc1cc2nc(C)cn2cc1C(=O)Nc1cnc(N[C@@H]2CNC[C@@H]2F)cn1` [Compound 666] the value was 50 to 75%; for `CCOc1cc2nc(C)cn2cc1C(=O)Nc1cnc(N2CC(N)C(C)(C)C2)cn1` (stereo not drawn) [Compound 667], more than 75%; for `CCOc1cc2nc(C)cn2cc1C(=O)Nc1cnc(NCCC2CNCC(C)O2)cn1` (stereo not drawn) [Compound 669], less than 50%.
For `CCOc1cc2nc(C)cn2cc1C(=O)Nc1cnc(N2CC[C@@H](C)[C@@H](NC)C2)cn1` [Compound 671], the activation at 5 µM is less than 50%.
On the same count and under the same terms, as for `CCOc1cc2nc(C)cn2cc1C(=O)Nc1cnc(N2C[C@@H](F)C[C@H]2CN)cn1` [Compound 672], the figure is 50 to 75%; as for `CCOc1cc2nc(C)cn2cc1C(=O)Nc1cnc(N2CCC3(CNCCO3)C2)cn1` (stereo not drawn) [Compound 673], less than 50%.
On the same count and under the same terms, for `CCOc1cc2nc(C)cn2cc1C(=O)Nc1cnc(NCC2(F)CCNC2)cn1` (stereo not drawn) [Compound 674] the value was 50 to 75%; for `CCOc1cc2nc(C)cn2cc1C(=O)Nc1cnc(N2CCOC3(CCNC3)C2)cn1` (stereo not drawn) [Compound 676], 50 to 75%; for `CCOc1cc2nc(C)cn2cc1C(=O)Nc1cnc(N2CC(N)C3(CC3)C2)cn1` (stereo not drawn) [Compound 678], more than 75%.
Consider `CCOc1cc2nc(C)cn2cc1C(=O)Nc1cnc(NCc2cccc(CNC)c2)cn1` [Compound 679], for which the activation at 5 µM was less than 50%.
On to `CCOc1cc2nc(C)cn2cc1C(=O)Nc1cnc(N2CCC3(CC2)CNCCO3)cn1` [Compound 683], for which the activation at 5 µM was less than 50%.
The same measure, in the same setting: as for `CCOc1cc2nc(C)cn2cc1C(=O)Nc1cnc(N2CCC3(CCNCC3)C2)cn1` [Compound 685], the figure is 50 to 75%; as for `CCOc1cc2nc(C)cn2cc1C(=O)Nc1cnc(N2C3CCC2CNC3)cn1` [Compound 686], more than 75%.
The same measure, in the same setting: as for `CCNCC1CCN(c2cnc(NC(=O)c3cn4cc(C)nc4cc3OCC)cn2)CC1` [Compound 687], the figure is more than 75%.
Still for that read-out and setting: for `CCOc1cc2nc(C)cn2cc1C(=O)Nc1cnc(N2CCC(NC)C2)cn1` (stereo not drawn) [Compound 688] the value was more than 75%; for `CCOc1cc2nc(C)cn2cc1C(=O)Nc1cnc(N2CCCC(NC)C2)cn1` (stereo not drawn) [Compound 690], 50 to 75%; for `CCOc1cc2nc(C)cn2cc1C(=O)Nc1cnc(N2CCC(NC)CC2)cn1` [Compound 691], more than 75%.
Take `CCOc1cc2nc(C)cn2cc1C(=O)Nc1cnc(N2CCNC[C@H]2C)cn1` [Compound 692]: the activation at 5 µM was more than 75%.
On to `CCOc1cc2nc(C)cn2cc1C(=O)Nc1cnc(N2CCNCC2)cn1` [Compound 693], for which the activation at 5 µM was more than 75%.
Same read-out and setting: as for `CCOc1cc2nc(C)cn2cc1C(=O)Nc1cnc(N2CCC(N)C2)cn1` (stereo not drawn) [Compound 694], the figure is more than 75%.
Still for that read-out and setting: as for `CCOc1cc2nc(C)cn2cc1C(=O)Nc1cnc(N2CCC(N)CC2)cn1` [Compound 695], the figure is more than 75%.
Consider `CCOc1cc2nc(C)cn2cc1C(=O)Nc1cnc(N[C@H]2CCNC2)cn1` [Compound 696], for which the activation at 5 µM was in the range of 50 to 75%.
Still for that read-out and setting: for `CCOc1cc2nc(C)cn2cc1C(=O)Nc1cnc(N2CCNCC2C)cn1` (stereo not drawn) [Compound 697] the value was more than 75%; for `CCOc1cc2nc(C)cn2cc1C(=O)Nc1cnc(N2CCNC(C)C2)cn1` (stereo not drawn) [Compound 698], more than 75%.
Consider `CCOc1cc2nc(C)cn2cc1C(=O)Nc1cnc(N2CCN[C@@H](C)C2)cn1` [Compound 700, 7-ethoxy-2-methyl-N-5-[(3S)-3-methylpiperazin-1-yl]pyrazin-2-ylimidazo[1,2-a]pyridine-6-carboxamide], for which the IC50 (as a rule, the concentration needed to halve the response being measured) was less than 1 µM.
`CCOc1cn2nc(C)cc2cc1C(=O)Nc1cnc(N2CCN[C@@H](C)C2)cn1` [Compound 701, 6-ethoxy-2-methyl-N-{5-[(3S)-3-methylpiperazin-1-yl]pyrazin-2-yl}pyrazolo[1,5-a]pyridine-5-carboxamide]: the activation at 5 µM is more than 75%.
Regarding `CCOc1cc2nc(C)cn2cc1C(=O)Nc1ccc(N2CCN[C@@H](C)C2)cc1F` [Compound 702, 7-ethoxy-N-2-fluoro-4-[(3S)-3-methylpiperazin-1-yl]phenyl-2-methylimidazo[1,2-a]pyridine-6-carboxamide], the 50% inhibitory concentration (IC50) was less than 1 µM.
Still for that read-out and setting: for `CCOc1cc2nc(C)cn2cc1C(=O)Nc1ccc(N2CCNC3(CC3)C2)cc1F` [Compound 704, N-(4-4,7-diazaspiro[2.5]octan-7-yl-2-fluorophenyl)-7-ethoxy-2-methylimidazo[1,2-a]pyridine-6-carboxamide] the value was less than 1 µM.
Still for that read-out and setting: for `Cc1cn2cc(C(=O)Nc3ccc(N4CCN[C@@H](C)C4)cc3F)c(OC3CCC3)cc2n1` [Compound 705, 7-cyclobutoxy-N-2-fluoro-4-[(3S)-3-methylpiperazin-1-yl]phenyl-2-methylimidazo[1,2-a]pyridine-6-carboxamide] the value was less than 1 µM; for `CCOc1cc2nn(C)cc2cc1C(=O)Nc1ccc(C2=CCNCC2)nn1` [Compound 708, 6-ethoxy-2-methyl-N-(6-(1,2,3,6-tetrahydropyridin-4-yl)pyridazin-3-yl)-2H-indazole-5-carboxamide formate], less than 1 µM.
The same measure, in the same setting: for `CCOc1cc2nc(C)cn2cc1C(=O)Nc1ccc(C2=CCNCC2)nn1` [Compound 709, 7-ethoxy-2-methyl-N-(6-(1,2,3,6-tetrahydropyridin-4-yl)pyridazin-3-yl)imidazo[1,2-a]pyridine-6-carboxamide hydrochloride] the value was less than 1 µM; for `CCOc1cc2nn(C)cc2cc1C(=O)Nc1cnc(N2CCN[C@@H](C)C2)cn1` [Compound 710, (S)-6-ethoxy-2-methyl-N-(5-(3-methylpiperazin-1-yl)pyrazin-2-yl)-2H-indazole-5-carboxamide formate], less than 1 µM; for `CCOc1nc2nc(C)cn2cc1C(=O)Nc1ccc(N2CCNCC2)cn1` [Compound 711, 7-ethoxy-2-methyl-N-(5-(piperazin-1-yl)pyridin-2-yl)imidazo[1,2-a]pyrimidine-6-carboxamide formate], less than 1 µM.
Consider `Cc1cn2cc(C(=O)Nc3ccc(N4CCNCC4)cn3)c(OC3CC3)cc2n1` [Compound 712, 7-cyclopropoxy-2-methyl-N-(5-(piperazin-1-yl)pyridin-2-yl) imidazo[1,2-a]pyridine-6-carboxamide hydrochloride], for which the IC50 is less than 1 µM.
Still for that read-out and setting: for `COc1cc2nc(C)cn2cc1C(=O)Nc1ccc(N2CCN[C@@H](C)C2)nn1` [Compound 713, (S)-7-methoxy-2-methyl-N-(6-(3-methylpiperazin-1-yl)pyridazin-3-yl)imidazo[1,2-a]pyridine-6-carboxamide hydrochloride] the value was less than 1 µM; for `CCOc1nc2nc(C)cn2cc1C(=O)Nc1ccc(N2C[C@@H](C)N[C@@H](C)C2)nn1` [Compound 714, N-(6-((3R,5S)-3,5-dimethylpiperazin-1-yl)pyridazin-3-yl)-7-ethoxy-2-methylimidazo[1,2-a]pyrimidine-6-carboxamide hydrochloride], less than 1 µM.
Same read-out and setting: as for `CCOc1nc2nn(C)cc2cc1C(=O)Nc1ccc(N2CCNCC2)nn1` [Compound 715, 6-ethoxy-2-methyl-N-(6-(piperazin-1-yl)pyridazin-3-yl)-2H-pyrazolo[3,4-b]pyridine-5-carboxamide], the figure is less than 1 µM; as for `CCOc1cc2nn(C)cc2cc1C(=O)Nc1cnc(N2CCN[C@@H](CC)C2)cn1` [Compound 716, (S)-6-ethoxy-N-(5-(3-ethylpiperazin-1-yl)pyrazin-2-yl)-2-methyl-2H-indazole-5-carboxamide HCl Salt], less than 1 µM.
The same measure, in the same setting: as for `CCOc1cc2nn(C)cc2cc1C(=O)Nc1ccc(C2CCN[C@@H](C)C2)nn1` (stereo partly drawn) [Compound 717, 6-ethoxy-2-methyl-N-(6-((2S)-2-methylpiperidin-4-yl)pyridazin-3-yl)-2H-indazole-5-carboxamide], the figure is less than 1 µM; as for `COc1cc2nc(C)cn2cc1C(=O)Nc1ccc(N2CCN[C@@H](C)C2)cn1` [Compound 718, (S)-7-methoxy-2-methyl-N-(5-(3-methylpiperazin-1-yl)pyridin-2-yl)imidazo[1,2-a]pyridine-6-carboxamide formate], less than 1 µM; as for `CCOc1cc2nc(C)cn2cc1C(=O)Nc1cnc(N2C[C@@H](C)N[C@@H](C)C2)cn1` [Compound 719, N-(5-((3S,5R)-3,5-dimethylpiperazin-1-yl)pyrazin-2-yl)-7-ethoxy-2-methylimidazo[1,2-a]pyridine-6-carboxamide], less than 1 µM.
For the compound `CCOc1cc2nn(C)cc2cc1C(=O)Nc1cnc(N2C[C@@H](C)N[C@@H](C)C2)cn1` [Compound 720, N-(5-((3R,5S)-3,5-dimethylpiperazin-1-yl)pyrazin-2-yl)-6-ethoxy-2-methyl-2H-indazole-5-carboxamide hydrochloride], the IC50 is less than 1 µM.
The same measure, in the same setting: as for `CCOc1nc2nc(C)cn2cc1C(=O)Nc1cnc(N2C[C@@H](C)N[C@@H](C)C2)cn1` [Compound 721, N-(5-((3R,5S)-3,5-dimethylpiperazin-1-yl)pyrazin-2-yl)-7-ethoxy-2-methylimidazo[1,2-a]pyrimidine-6-carboxamide hydrochloride], the figure is 1 to 10 µM.

(Values after patent US20250066389A1, “HETEROCYCLIC AMIDES AND METHODS OF USING THE SAME” (Rgenta Therapeutics, Inc., priority 2021, published 2025).)
